Measurements reported in patent US20050019314A1, “Method and compositions for treating respiratory pathologies” (priority 2001, published 2005).
Marks after values point to notes of the source that are not given here. Blank lines part the entries; values can stand above or below the compound they belong to.

What was measured:
Type in all cases: in vivo, rat
[1] = test system: male Wistar rats; assay: Immune cell accumulation in bronchoalveolar lavage fluid induced by intratracheal infusion of Pseudomonas aeruginosa LPS
Experimental: For this experiment, three groups of 7 male Wistar rats (200-225 g) were used. Animals were pretreated with either ML-7 by the IP route (3 mg/kg then 1 mg/kg, 3 times a day for 48 h) or with the vehicle (ethanol 10%). One hour after the next-to-last ML-7 administration, under urethane anesthesia ([…]), a slow intratracheal infusion of 150 μl of an iso-osmolar solution (5% bovine albumin+PBS) containing (2 groups) or not containing (control group) LPS (1 μg/rat) was given. Four hours after the intratracheal infusion, bronchoalveolar lavage was performed.

[2] = test system: male Wistar rats; assay: Immune cell accumulation in bronchoalveolar lavage fluid induced by intratracheal instillation of taurocholate (ML-7)
Experimental: For this experiment, three groups of 8 male Wistar rats (250-300 g) were given either ML-7 by the IP route at a dose of 1 mg/kg/12 h for 36 hours, or the vehicle alone. […] At time t=2 h after the intratracheal instillation, animals were anesthetized for bronchoalveolar lavage, then sacrificed.

[3] = test system: male Wistar rats; assay: Pulmonary paracellular permeability to 125I-labelled human serum albumin after intratracheal Pseudomonas aeruginosa LPS
Experimental: For this experiment, three groups of 6 male Wistar rats (200-225 g) were pretreated either with ML-7 by the IP route (3 mg/kg then 1 mg/kg 3 times a day for 48 h) or the vehicle (ethanol 10%). One hour after the next-to-last administration of ML-7, under urethane anesthesia ([…] IP), a slow intratracheal infusion of 150 μl of an iso-osmolar solution (5% bovine albumin+PBS) containing the tracer and containing (2 groups) or not containing (control group) LPS (1 μg/rat) was given.

[4] = test system: male Wistar rats; assay: Immune cell accumulation in bronchoalveolar lavage fluid induced by intratracheal infusion of taurocholate (PD-98059)
Experimental: For this experiment, three groups of 8 male Wistar rats (250-300 g) were given either PD-98059 by the IP route (1 mg/kg/12 h, 36 h) or the vehicle alone (DMSO).

[5] = test system: male Wistar rats; assay: Immune cell accumulation in bronchoalveolar lavage fluid induced by intranasal instillation of SLIGRL in rats
Experimental: At time t=10 days, the four groups of animals were given a slow intranasal instillation of 200 μl of physiologic serum containing (groups 2 and 4) or not containing (groups 1 and 3) 0.2 mg of SLIGRL.
At time t=3 h after intranasal instillation, animals were anesthetized for bronchoalveolar lavage, then sacrificed.

[6] = ML-7 (3 mg/kg then 1 mg/kg 3 times a day for 48 h IP) + LPS, BAL 4 h, mean ± SEM
[7] = ML-7 1 mg/kg/12 h, 36 h IP + taurocholate intratracheal, BAL 2 h, mean ± SD
[8] = PD-98059 1 mg/kg/12 h, 36 h IP + taurocholate, BAL 2 h, mean ± SEM
[9] = Taurine 10% in drinking water 10 days + 0.9% NaCl IN, BAL 3 h
[10] = Taurine 10% in drinking water 10 days + PAR 2 (SLIGRL) IN, BAL 3 h
[11] = PAR 2 (SLIGRL) 0.2 mg/kg IN alone, no taurine, BAL 3 h after instillation

effect on vascular endothelial cells (endothelium permeability, tone, pulmonary circulating hemodynamics) ([3]; ML-7 IP + LPS, concluded from unchanged plasma radioactivity): does not present effect
Compound: O=S(=O)(c1cccc2c(I)cccc12)N1CCCNCC1 [ML-7, 1-(5-iodonaphtalène-1-sulfonyl)-1H-hexahydro-1,4-diazepine]
Leucocytes in BAL [1, 6]: 17243 ± 2956 cells/mm^3 BAL
Lymphocytes in BAL [1, 6]: 902 ± 375 cells/mm^3 BAL
Macrophages in BAL [1, 6]: 10708 ± 1713 cells/mm^3 BAL
Neutrophils in BAL [1, 6]: 6587 ± 1749 cells/mm^3 BAL
LPS-induced increase in the number of neutrophils in BAL (in words) ([1]; ML-7 pretreatment IP + LPS): reduced
Leucocytes in BAL [2, 7]: 4160 ± 573
Lymphocytes in BAL [2, 7]: 101 ± 44
Macrophages in BAL [2, 7]: 3585 ± 398
Neutrophils in BAL [2, 7]: 473 ± 216
intra-alveolar accumulation of immune cells (in words) ([2]; ML-7 IP + intratracheal taurocholate): significantly reduces
LPS-induced increase in pulmonary permeability ([3]; ML-7 pretreatment IP (3 mg/kg then 1 mg/kg 3 times a day for 48 h) + LPS): inhibited

Compound: COc1cccc(-c2cc(=O)c3ccccc3o2)c1N [PD-98059, 2-(amino-3-methoxyphenyl)-4H-1-benzopyran-4-one]
Eosinophils in BAL [4, 8]: 27 ± 27 cells/mm^3 BAL
Leucocytes in BAL [4, 8]: 21424 ± 3164 cells/mm^3 BAL
Lymphocytes in BAL [4, 8]: 774 ± 183 cells/mm^3 BAL
Macrophages in BAL [4, 8]: 17956 ± 2465 cells/mm^3 BAL
Neutrophils in BAL [4, 8]: 2652 ± 600 cells/mm^3 BAL
intra-alveolar accumulation of immune cells (in words) ([4]; PD-98059 IP + intratracheal taurocholate): reduces

Compound: NCCS(=O)(=O)O [Taurine, taurine]
Eosinophils in BAL [5, 9]: 17 ± 1 mm^3
Lymphocytes in BAL [5, 9]: 22 ± 8 mm^3
Macrophages in BAL [5, 9]: 1651 ± 72 mm^3
Neutrophils in BAL [5, 9]: 34 ± 3 mm^3
Tot. Leucocytes in BAL [5, 9]: 1728 ± 111 mm^3
Eosinophils in BAL [5, 10]: 17 ± 1* mm^3
Lymphocytes in BAL [5, 10]: 22 ± 8* mm^3
Macrophages in BAL [5, 10]: 1967 ± 103* mm^3
Neutrophils in BAL [5, 10]: 34 ± 3* mm^3
Tot. Leucocytes in BAL [5, 10]: 2086 ± 134* mm^3
SLIGRL-induced accumulation of eosinophils and neutrophils in BAL (in words) ([5]; animals treated with taurine, t = 3 h): not in animals treated with taurine

Compound: SLIGRL [PAR 2]
Eosinophils in BAL [5, 11]: 32 ± 2^+ mm^3
Lymphocytes in BAL [5, 11]: 297 ± 28 mm^3
Macrophages in BAL [5, 11]: 5559 ± 63^+ mm^3
Neutrophils in BAL [5, 11]: 656 ± 41^+ mm^3
Tot. Leucocytes in BAL [5, 11]: 6464 ± 99^+ mm^3
eosinophils and neutrophils in bronchoalveolar lavage fluid (in words) ([5]; intranasal SLIGRL, control animals (no taurine), t = 3 h): results in accumulation
